Values of other authors, collected in patent US6514973B1, “Compositions for the treatment and prevention of neurological and pathopsychological diseases” (Merck Patent Geseilschaft Mit Beschrankter Haftung, priority 1998, dated 2003).

For Phosphatidylserines, the “time until appearance in the blood after oral administration” value is given as “about 30 minutes”.
